We go through twelve compounds from patent US10407467B2, “Polymyxin derivatives and their use in combination therapy together with different antibiotics” (priority 2013, dated 2019).

Where two headings read alike, the source gives them in different places.

Experiment in all cases: MIC, sole activity (no second agent)
Holding throughout (format): cell-based

One assay concerns Klebsiella pneumoniae. The following applies: for MIC: Klebsiella pneumoniae; for MIC K. pneumoniae ATCC 4352 / MIC K. pneumoniae ATCC BAA-2146: Table 6A, no second agent, different supplier of Cation-adjusted MHB. On the procedure: (§1) To evaluate the potency and spectrum of the compounds both alone and in combination with another agent, susceptibility testing was performed against up to four strains of each of the four Gram negative pathogens, Escherichia coli, Pseudomonas aeruginosa, Klebsiella pneumoniae and Acinetobacter baumannii.
(§2) The inoculum was prepared by making a direct suspension of isolated colonies (selected from an 18-24 hour Mueller-Hinton agar plate) adjusted to the 0.5 McFarland standard.
(§3) The assays were performed in duplicate.
(§4) In cases where the duplicate values varied by less than 2-fold, the lower of the two values is reported. If a variation of greater than 2-fold was observed, the assay was considered non-valid. Several of the compounds were subjected to multiple tests, and where this is the case, the MIC reflects the modal value obtained.
(§5) MICs were determined as described herein, except that a different supplier of Cation-adjusted MHB was used. […] Values are reported relative to Polymyxin B.

The next assay deals with Pseudomonas aeruginosa. The following applies: for MIC: Pseudomonas aeruginosa; for MIC P. aeruginosa ATCC 27853 / MIC P. aeruginosa CCUG 59347: Table 6A, no second agent, different supplier of Cation-adjusted MHB. Here is the method:
as §1, §2, §3, §4, §5

The subject of the next assay is Escherichia coli. The following applies: for MIC: Escherichia coli; for MIC E. coli ATCC25922 / MIC E. coli NCTC 13441: Table 6A, no second agent, different supplier of Cation-adjusted MHB. Here is the method: as §1, §2, §3, §4, §5
Another assay concerns Acinetobacter baumannii. The following applies: for MIC: Acinetobacter baumannii, NCTC13424; for MIC A. baumannii ATCC BAA-747 / MIC A. baumannii NCTC 13424: Table 6A, no second agent, different supplier of Cation-adjusted MHB. Here is the method: as §1, §2, §3, §4, §5

Turning to `CC[C@H]1OC(=O)[C@H](C)[C@@H](O[C@H]2C[C@@](C)(OC)[C@@H](O)[C@H](C)O2)[C@H](C)[C@@H](O[C@@H]2O[C@H](C)C[C@H](N(C)C)[C@H]2O)[C@](C)(O)C[C@@H](C)CN(C)[C@H](C)[C@@H](O)[C@]1(C)O` [Azithromycin, reference compound], the minimum inhibitory concentration (MIC) in the assay on Klebsiella pneumoniae (CCUG59349, Table 7F, K. pneumoniae CCUG 59349, second agent none, read-out: MIC K. pneumoniae CCUG 59349) is greater than 32 µg/mL; in the assay with Klebsiella pneumoniae (Table 7F, K. pneumoniae ATCC4352, second agent none, read-out: MIC K. pneumoniae ATCC4352), 0.25 µg/mL; in the assay with Pseudomonas aeruginosa (ATCC10145, Table 7F, P. aeruginosa ATCC 10145, second agent none, read-out: MIC P. aeruginosa ATCC 10145) it was 32 µg/mL; in the assay on Escherichia coli (NCTC13441, Table 7F, E. coli NCTC 13441, second agent none, read-out: MIC E. coli NCTC 13441), greater than 32 µg/mL; in the assay on Escherichia coli (Table 7F, E. coli ATCC25922, second agent none, read-out: MIC E. coli ATCC25922), 1 µg/mL; in the assay on Acinetobacter baumannii (Table 7F, A. baumannii NCTC 13424, second agent none) it was 8 µg/mL.

As for `C[C@H]1[C@H](NC(=O)/C(=N\OC(C)(C)C(=O)O)c2csc(N)n2)C(=O)N1S(=O)(=O)O` [Aztreonam, reference compound], the MIC in the assay on Klebsiella pneumoniae (ATCC4352, Second Agent none (Table 7E), read-out: MIC K. pneumoniae ATCC4352) is no more than 0.06 µg/mL; in the assay on Klebsiella pneumoniae (CCUG59349, Second Agent none (Table 7E), read-out: MIC K. pneumoniae CCUG 59349) it was greater than 32 µg/mL; in the assay with Pseudomonas aeruginosa (ATCC10145, Second Agent none (Table 7E), read-out: MIC P. aeruginosa ATCC 10145) it was 4 µg/mL; in the assay with Escherichia coli (ATCC25922, Second Agent none (Table 7E), read-out: MIC E. coli ATCC25922) it was no more than 0.06 µg/mL; in the assay on Escherichia coli (NCTC13441, Second Agent none (Table 7E), read-out: MIC E. coli NCTC 13441), greater than 32 µg/mL; in the assay on Acinetobacter baumannii (Second Agent none (Table 7E), read-out: MIC A. baumannii NCTC 13424), 8 µg/mL.

Turning to `O=C(O)c1cn(C2CC2)c2cc(N3CCNCC3)c(F)cc2c1=O` [Ciprofloxacin, reference compound], the MIC in the assay on Klebsiella pneumoniae (ATCC4352, Second Agent none (Table 7B, by row order), read-out: MIC K. pneumoniae (ATCC4352)) was no more than 0.06 µg/mL; with Klebsiella pneumoniae (ATCCBAA1706, Second Agent none (Table 7B, by row order), read-out: MIC K. pneumoniae ATCC BAA-1706) it was 4 µg/mL; in the assay with Klebsiella pneumoniae (CCUG59348, Second Agent none (Table 7B), read-out: MIC K. pneumoniae CCUG 59348), greater than 32 µg/mL; in the assay on Klebsiella pneumoniae (NCTC13442, Second Agent none (Table 7B), read-out: MIC K. pneumoniae NCTC 13442) it was 2 µg/mL; with Pseudomonas aeruginosa (ATCC27853, Second Agent none (Table 7B, by row order), read-out: MIC P. aeruginosa ATCC 27853) it was 0.125 µg/mL; with Pseudomonas aeruginosa (CCUG59626, Second Agent none (Table 7B, by row order), read-out: MIC P. aeruginosa CCUG 59626), 0.5 µg/mL. The MIC with Escherichia coli (ATCC25922, Second Agent none (Table 7B), read-out: MIC E. coli ATCC25922) is no more than 0.06 µg/mL; with Escherichia coli (CCUG59342, Second Agent none (Table 7B), read-out: MIC E. coli CCUG 59342) it was 16 µg/mL; in the assay on Escherichia coli (NCTC9001, Second Agent none (Table 7B), read-out: MIC E. coli (NCTC9001)), no more than 0.06 µg/mL; in the assay with Acinetobacter baumannii (Second Agent none (Table 7B, by row order), read-out: MIC A. baumannii (NCTC 13424)), 1 µg/mL.

Take `CO[C@@H]1[C@@H](OC(N)=O)[C@@H](O)[C@H](Oc2ccc3c(O)c(NC(=O)c4ccc(O)c(CC=C(C)C)c4)c(=O)oc3c2C)OC1(C)C` [Novobiocin, reference compound]: the MIC in the assay on Klebsiella pneumoniae (CCUG59349, Table 7H, K. pneumoniae CCUG 59349, second agent none, read-out: MIC K. pneumoniae CCUG 59349) was greater than 32 µg/mL; in the assay on Klebsiella pneumoniae (Table 7H, K. pneumoniae ATCC4352, second agent none, read-out: MIC K. pneumoniae ATCC4352), 0.25 µg/mL; with Pseudomonas aeruginosa (ATCC10145, Table 7H, P. aeruginosa ATCC 10145, second agent none, read-out: MIC P. aeruginosa ATCC 10145) it was greater than 32 µg/mL; in the assay on Escherichia coli (NCTC13441, Table 7H, E. coli NCTC 13441, second agent none, read-out: MIC E. coli NCTC 13441) it was greater than 32 µg/mL; in the assay on Escherichia coli (Table 7H, E. coli ATCC25922, second agent none, read-out: MIC E. coli ATCC25922), 16 µg/mL; in the assay on Acinetobacter baumannii (Table 7H, A. baumannii NCTC 13424, second agent none) it was 4 µg/mL.

In the case of “(1- aminomethylcyclohexane) carbonyl polymyxin B nonapeptide [Example A34]”, in the assay on Klebsiella pneumoniae, the “MIC K. pneumoniae ATCC 4352” value was determined as 8 micrograms/mL and the “MIC K. pneumoniae ATCC BAA-2146” value is recorded as greater than 8 micrograms/mL. Besides, in the assay on Pseudomonas aeruginosa, the “MIC P. aeruginosa ATCC 27853” value stood at 0.5 micrograms/mL and the “MIC P. aeruginosa CCUG 59347” value was determined as 2 micrograms/mL. Moreover, in the assay on Escherichia coli, the “MIC E. coli ATCC25922” value is 8 micrograms/mL and the “MIC E. coli NCTC 13441” value is given as greater than 8 micrograms/mL. In addition, in the assay with Acinetobacter baumannii, the “MIC A. baumannii ATCC BAA-747” value is greater than 8 micrograms/mL and the “MIC A. baumannii NCTC 13424” value is recorded as greater than 8 micrograms/mL.

Turning to “(2S)-2-Amino-3- cyclohexanepropanoyl polymyxin B nonapeptide [Example A16]”, in the assay with Klebsiella pneumoniae, the “MIC K. pneumoniae ATCC 4352” value is given as greater than 8 micrograms/mL and the “MIC K. pneumoniae ATCC BAA-2146” value is greater than 8 micrograms/mL. Besides, in the assay with Pseudomonas aeruginosa, the “MIC P. aeruginosa ATCC 27853” value is given as 1 micrograms/mL and the “MIC P. aeruginosa CCUG 59347” value was greater than 8 micrograms/mL. In the assay with Escherichia coli, the “MIC E. coli ATCC25922” value is greater than 8 micrograms/mL and the “MIC E. coli NCTC 13441” value is greater than 8 micrograms/mL. In the assay with Acinetobacter baumannii, the “MIC A. baumannii ATCC BAA-747” value is given as greater than 8 micrograms/mL and the “MIC A. baumannii NCTC 13424” value is greater than 8 micrograms/mL.

As for “(2S)-Morpholine-2-carbonyl polymyxin B nonapeptide [Example A40]”, in the assay on Klebsiella pneumoniae, the “MIC K. pneumoniae ATCC 4352” value is reported as 4 micrograms/mL and the “MIC K. pneumoniae ATCC BAA-2146” value is recorded as 8 micrograms/mL. In addition, in the assay with Pseudomonas aeruginosa, the “MIC P. aeruginosa ATCC 27853” value was 2 micrograms/mL and the “MIC P. aeruginosa CCUG 59347” value was 4 micrograms/mL. Also, in the assay on Escherichia coli, the “MIC E. coli ATCC25922” value is 8 micrograms/mL and the “MIC E. coli NCTC 13441” value is reported as 4 micrograms/mL. In addition, in the assay with Acinetobacter baumannii, the “MIC A. baumannii ATCC BAA-747” value is given as greater than 8 micrograms/mL and the “MIC A. baumannii NCTC 13424” value was greater than 8 micrograms/mL.

On to “(2S)-piperazine-2-carbonyl polymyxin B nonapeptide [Example A49]”, for which, in the assay on Klebsiella pneumoniae, the “MIC K. pneumoniae ATCC 4352” value is 2 micrograms/mL and the “MIC K. pneumoniae ATCC BAA-2146” value was greater than 8 micrograms/mL. Besides, in the assay on Pseudomonas aeruginosa, the “MIC P. aeruginosa ATCC 27853” value is given as 2 micrograms/mL and the “MIC P. aeruginosa CCUG 59347” value is reported as 4 micrograms/mL. Further, in the assay on Escherichia coli, the “MIC E. coli ATCC25922” value worked out at 4 micrograms/mL and the “MIC E. coli NCTC 13441” value is reported as 4 micrograms/mL. Moreover, in the assay with Acinetobacter baumannii, the “MIC A. baumannii ATCC BAA-747” value is recorded as greater than 8 micrograms/mL and the “MIC A. baumannii NCTC 13424” value was greater than 8 micrograms/mL.

As to “(2S,3S)-3-Amino-2-hydroxy- 5-methylhexanoyl polymyxin B decapeptide [Example A18]”, in the assay on Klebsiella pneumoniae, the “MIC K. pneumoniae ATCC 4352” value amounted to 4 micrograms/mL and the “MIC K. pneumoniae ATCC BAA-2146” value amounted to 4 micrograms/mL. Further, in the assay with Pseudomonas aeruginosa, the “MIC P. aeruginosa ATCC 27853” value worked out at 0.5 micrograms/mL and the “MIC P. aeruginosa CCUG 59347” value turned out to be 1 micrograms/mL. In the assay on Escherichia coli, the “MIC E. coli ATCC25922” value is 8 micrograms/mL and the “MIC E. coli NCTC 13441” value is on record as 4 micrograms/mL. Moreover, in the assay with Acinetobacter baumannii, the “MIC A. baumannii ATCC BAA-747” value turned out to be 4 micrograms/mL and the “MIC A. baumannii NCTC 13424” value is 8 micrograms/mL.

For the compound “(2S,4R)-4-amino-1-(3-amino- 3-cyclohexylpropanoyl)pyrrolidine- 2-carbonyl polymyxin B nonapeptide [Example A29]”, in the assay on Klebsiella pneumoniae, the “MIC K. pneumoniae ATCC 4352” value is reported as greater than 8 micrograms/mL and the “MIC K. pneumoniae ATCC BAA-2146” value was greater than 8 micrograms/mL. Moreover, in the assay on Pseudomonas aeruginosa, the “MIC P. aeruginosa ATCC 27853” value is on record as 0.25 micrograms/mL and the “MIC P. aeruginosa CCUG 59347” value is greater than 8 micrograms/mL. Further, in the assay on Escherichia coli, the “MIC E. coli ATCC25922” value is greater than 8 micrograms/mL and the “MIC E. coli NCTC 13441” value is greater than 8 micrograms/mL. In the assay with Acinetobacter baumannii, the “MIC A. baumannii ATCC BAA-747” value was determined as 2 micrograms/mL and the “MIC A. baumannii NCTC 13424” value stood at 4 micrograms/mL.

In the case of “(R)-4-isobutylpiperazine-2- carbonyl polymyxin B nonapeptide [Example A46]”, in the assay on Klebsiella pneumoniae, the “MIC K. pneumoniae ATCC 4352” value was found to be 2 micrograms/mL and the “MIC K. pneumoniae ATCC BAA-2146” value amounted to 2 micrograms/mL. For the same compound, in the assay with Pseudomonas aeruginosa, the “MIC P. aeruginosa ATCC 27853” value came to 1 micrograms/mL and the “MIC P. aeruginosa CCUG 59347” value was 2 micrograms/mL. In addition, in the assay on Escherichia coli, the “MIC E. coli ATCC25922” value worked out at 2 micrograms/mL and the “MIC E. coli NCTC 13441” value worked out at 2 micrograms/mL. Further, in the assay on Acinetobacter baumannii, the “MIC A. baumannii ATCC BAA-747” value worked out at 8 micrograms/mL and the “MIC A. baumannii NCTC 13424” value is 2 micrograms/mL.

As to “(R)-Piperidine-3-carbonyl polymyxin B nonapeptide [Example A24]”, in the assay with Klebsiella pneumoniae, the “MIC K. pneumoniae ATCC 4352” value turned out to be 8 micrograms/mL and the “MIC K. pneumoniae ATCC BAA-2146” value was greater than 8 micrograms/mL. Moreover, in the assay with Pseudomonas aeruginosa, the “MIC P. aeruginosa ATCC 27853” value is recorded as 1 micrograms/mL and the “MIC P. aeruginosa CCUG 59347” value was found to be 2 micrograms/mL. Besides, in the assay with Escherichia coli, the “MIC E. coli ATCC25922” value is given as greater than 8 micrograms/mL and the “MIC E. coli NCTC 13441” value is on record as greater than 8 micrograms/mL. Further, in the assay on Acinetobacter baumannii, the “MIC A. baumannii ATCC BAA-747” value is recorded as greater than 8 micrograms/mL and the “MIC A. baumannii NCTC 13424” value was greater than 8 micrograms/mL.
